Data as given in US20250027041A1, “COMPOSITION FOR INDUCING TRANSDIFFERENTIATION AND STEM CELLS TREATED THEREWITH” (YJ CERAPEUTICS INC., priority 2021, published 2025).

Columns and labels:
BM-MSC = assay: Tuj1 immunochemical assay, BM-MSC; assay type: cell-based, human; settings: 10, 20 or 30 μM, 5 days
Method: (§1) To determine whether transdifferentiation into ciNSC5, neural progenitor cells, occurred similarly even in MSCs of different origins when human UCB-MSCs were treated with YJ101, YJ102, or YJ103 for 5 days, the expression of neuronal markers in differentiated ciNSC5 was confirmed by immunochemical assay using MSCs from human adipose-derived mesenchymal stem cells (AD-MSCs), human bone marrow-derived mesenchymal stem cells ([…]) and human umbilical cord blood-derived mesenchymal stem cells (UCB-MSCs; Promo Cells). Specifically, AD-MSC (StemPro™ Human Adipose-Derived Stem Cell, Gibco, Passage #6) was incubated in a MesenPRO RS™ medium, BM-MSC (ATCC, Passage #6) was incubated in a Mesenchymal Stem Cell Basal Medium for Adipose, Umbilical and Bone Marrow-derived MSC (Cat. PCS-500-030, ATCC) medium, and UCB-MSC (Promo Cell, Passage #6) was incubated in a CellCor™ CD MSC (Cat. YSP001, Xell Therapeutics) medium, and then dispensed at 2.1×10^4 cells/well in a 12-well plate with an 18 mm cover glass (circular) (DMSO control group was dispensed at 3.5×10^3 cells/well). […] The culture medium was removed, washed with PBS, and then fixed with 4% paraformaldehyde at room temperature for 10 minutes. After washed three times with PBS, the cells were permeabilized with PBS-T containing 0.5% Triton X-100 for 10 minutes, washed with PBS-T three times for 10 minutes each, and then blocked with a blocking solution (PBS-T containing 5% BSA and 5% goat serum) for 1 hour. Thereafter, the cells were treated with anti-Tuj1 antibody (Cat. 801201, BioLegend) diluted 1/5000 in a blocking solution and incubated at 4° C. overnight. The next day, the cells were washed 10 times for 10 minutes each with PBS-T, and then treated with anti-mouse IgG-cy3 diluted 1/2000 in a blocking solution, and incubated for 1 hour in dark conditions. Next, the cells were washed 10 times for 10 minutes each with PBS-T, mounted with a mounting solution containing DAPI, and then observed with a confocal microscope.

human UCB-MSCs = assay: RNA-seq gene expression; assay type: cell-based; settings: UCB-MSCs treated with YJ102 30 μM for 3 days
Method: The expression gene profile of ciNSC5, which was transdifferentiated from human UCB-MSCs by treating YJ102 for 5 days, was analyzed using genome-wide RNA-seq. Specifically, 1×10^5 human UCB-MSCs were dispensed in a 60 mm culture dish (a control group dispensed at 1.67×10^4), the cells were treated with YJ102 dissolved at 30 mM in DMSO at a concentration of 30 μM (the control group treated with DMSO), and incubated at 37° C. for 2, 3, or 5 days. Thereafter, the culture medium was removed, washed with PBS, and the cells were collected with a scraper and transferred to a microcentrifuge tube. PBS was removed by centrifugation, and the cells were added with 500 μl of a Tri-RNA Reagent and mixed well by pipetting. The mixture was added with 100 μl of chloroform, the tube was mixed by vortexing for 15 seconds, and then centrifuged at 4° C. at 14,000 rpm for 20 minutes. Thereafter, the upper aqueous phase was transferred to a new microcentrifuge tube using a pipette, and added and mixed with 550 μl of isopropanol. The mixture was centrifuged at 14,000 rpm at 4° C. for 20 minutes, the supernatant was discarded, and the pellet was washed with 1 ml of 70% ethanol. […] The pellet was resuspended in 100 μl RNase-free DIW, centrifuged at 14,000 rpm for 10 minutes at 4° C. to remove the supernatant, air-dried, and then the RNA concentration was quantified using nanodrop. […]

UCB-MSCs = assay: CellTiter-Glo proliferation assay; assay type: cell-based, human; settings: 10, 20, or 40 μM; 3 or 5 days
Method: Thereafter, 100 μl of a CellTiter-Glo reagent prepared by mixing a CellTiter-Glo Buffer with a CellTiter-Glo substrate was added to each well of a 96-well plate, covered with a plate cover, and incubated at room temperature for 30 minutes.

CtBP1-CtBP2 = molecular target: T1, CtBP1-CtBP2 (Homo sapiens, UniProt P56545+Q13363); assay: Immunoprecipitation, CtBP1-CtBP2 heteromerization in UCB-MSCs; assay type: cell-based; settings: YJ102 20 μM; FLAG-CtBP2 + HA-CtBP1
T1 construct: expressed in transfected cells; host or cells: human UCB-MSC
Method: To determine the effect of YJ102 on the regulation of oligomerization of C-terminal Binding Proteins (CtBPs) in human UCB-MSCs, immunoprecipitation analysis was performed. Specifically, UCB-MSCs were dispensed at 4×10^5 cells/ml in a 60 mm culture dish, and the next day, FLAG-CtBP1, HA-CtBP1, FLAG-CtBP2, and HA-CtBP1 were transfected into cells using 4 μl jetPRIME. Thereafter, the cells were treated with YJ102 (stock 30 mM in DMSO) and MTOB (stock 300 mM in DMSO) at 20 μM and 300 μM, respectively (Table 1). After 48 hours of transfection, proteins were extracted in the same manner as in Example 1-1. Protein G agarose slurry was washed with PBS and blocked with 1 ml of 1% BSA, washed with PBS, and added with 1 μg of anti-HA antibody diluted with 1.5 ml of PBS and incubated at 4° C. for 2 hours. Thereafter, the cells were centrifuged at 3,000×g for 2 minutes to remove the supernatant, washed with an IP150 buffer two times, added with 1 μg of the protein extracted above, and incubated at 4° C. overnight. After incubation, the cells were centrifuged at 3,000×g for 2 minutes to remove the supernatant, washed with PBS three times, added with 50 μl of 1 mg/ml HA peptide diluted with PBS, and incubated at room temperature for 10 minutes. […]

UCB-MSC (Promo Cell) = assay: Tuj1 immunochemical assay, UCB-MSC (Promo Cell); assay type: cell-based, human; settings: 10, 20 or 30 μM, 5 days
Method: as §1

CtBP1-CtBP2 heteromerization (CtBP1-CtBP2): had no effect
Compound: CCc1ccc(N(C(=O)COC)c2nc3cc(Cl)ccc3o2)cc1 [YJ102]
expression of Tuj1 (BM-MSC): increased | expression of cell division-related genes (RNA-seq) (human UCB-MSCs): decreased | expression of nervous system-related genes (RNA-seq) (human UCB-MSCs): increased | cell proliferation (CellTiter-Glo) (UCB-MSCs): reduced cell proliferation in a concentration-dependent manner | expression of Tuj1 (UCB-MSC (Promo Cell)): increased
